Holding throughout (assay): PapG Luminex ligand binding at equilibrium
In experiment [1] the target is T1, E. coli CFT073 PapG-II lectin domain PapGLD N96S WT v2 (Escherichia coli, UniProt A0A0H2VDP3, N116S).
T1 sequence (A0A0H2VDP3 21-216 N116S): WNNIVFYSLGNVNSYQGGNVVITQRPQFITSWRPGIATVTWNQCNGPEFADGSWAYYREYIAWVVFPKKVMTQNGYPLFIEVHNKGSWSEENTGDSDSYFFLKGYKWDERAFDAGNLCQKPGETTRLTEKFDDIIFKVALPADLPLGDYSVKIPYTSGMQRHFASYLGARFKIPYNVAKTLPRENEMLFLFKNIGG
As to conditions: HEPES pH 7.4, 4° C. overnight. The protocol:
(§1) To determine the ability of PapGLD mutants to bind the porcine derived globotetraosyl ceramide ligand GalNAc-Gal-Gal-Glc-ceramide (GbO4), a Luminex ligand binding assay was developed. Surfactant Protein-A (SP-A) was coupled to the surface of MagPlex beads by EDC/NHS, to capture the lipid tail of the globotetraosyl ceramide. The Globotetraosyl ceramide/SP-A beads were incubated with an eight-point threefold titration of PapG in a 96 well flat bottom white plate with final volume of 100 microliters of 50 mM HEPES PH 7.4, 10 mM NaCl, 0.0005% Tween 20 shaking at 300 rpm, 4° C. overnight. After 20-24 hours the ligand binding plates were read on a FlexMap 3D plate reader for measurement of well-bead region specific MFI. Ligand binding equilibrium dissociation constants (Kd) were calculated assuming one site specific binding and interpolated using non-linear curve fitting (GraphPad Prism) as the ligand concentration needed to achieve half-maximal binding. The Luminex derived apparent Kd values are based on approximately fifty bead counts per assay sample.
(§2) To determine Luminex ligand binding affinities of PapG mutants for the synthetic globoside ligand Gal-Glc-phenoxy-octyl-amine (GbO2Mpo), a Luminex ligand binding assay was developed based on the direct coupling of the amine reactive globoside ligand to the EDC/NHS activated carboxylic surface of MagPlex beads. Synthesis of GbO2Mpo ligand with an octyl amine linker (for coupling to beads) was performed via methods described previously. The GbO2Mpo beads were incubated with an 8-point, threefold titration of PapG in a 96-well flat bottom white plate with final volume of 100 μl of 50 mM HEPES pH 7.4, 10 mM NaCl, 0.0005% Tween 20 shaking at 300 rpm, 4° C. overnight. After 20-24 hours the ligand binding plates were read on a FlexMap 3D plate reader for measurement of well-bead region specific MFI.
(§3) Binding of PapG proteins to GbO2 or GbO4 ligands was evaluated using a Luminex platform wherein ligands were coupled to MagPlex beads via surfactant protein A (for […]) or directly using […] conjugation (for […]). This assay was used to rank order binding affinities of the mutants, reported as Kd values interpolated from protein antigen titration curves (Table 7).

Experiment [2] has as its target T2, E. coli CFT073 PapG-II lectin domain PapGLD variant N96S G122A, SEQ ID NO: 20 (Escherichia coli, UniProt A0A0H2VAQ6, G142A/N116S).
T2 sequence (A0A0H2VAQ6 with tags, fused parts or gaps N116S/G142A): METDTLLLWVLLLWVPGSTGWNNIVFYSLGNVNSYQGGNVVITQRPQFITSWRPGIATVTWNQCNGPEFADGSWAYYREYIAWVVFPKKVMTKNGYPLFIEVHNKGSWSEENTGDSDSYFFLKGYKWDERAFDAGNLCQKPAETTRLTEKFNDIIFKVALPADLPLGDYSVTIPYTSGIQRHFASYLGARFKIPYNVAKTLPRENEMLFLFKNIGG
As to conditions: for Kd: HEPES pH 7.4, 4° C. overnight. On the procedure: as §1, §2, §3

The target of experiment [3] is T3, E. coli CFT073 PapG-II lectin domain PapGLD variant N96S G18A, SEQ ID NO: 18 (Escherichia coli, UniProt A0A0H2VAQ6, G38A/N116S).
T3 sequence (A0A0H2VAQ6 with tags, fused parts or gaps G38A/N116S): T2 sequence (A0A0H2VAQ6 with tags, fused parts or gaps N116S/G142A) with G38A, A142G
The note with it: HEPES pH 7.4, 4° C. overnight. On the procedure:
as §1, §2, §3

The target of experiment [4] is T4, E. coli CFT073 PapG-II lectin domain PapGLD variant N96S S89T, SEQ ID NO: 15 (Escherichia coli, UniProt A0A0H2VAQ6, N116S/S109T).
T4 sequence (A0A0H2VAQ6 with tags, fused parts or gaps S109T/N116S): T2 sequence (A0A0H2VAQ6 with tags, fused parts or gaps N116S/G142A) with S109T, A142G
As to conditions: HEPES pH 7.4, 4° C. overnight. The protocol:
as §1, §2, §3

For experiment [5], the target named is T5, E. coli CFT073 full-length donor strand complemented PapG-II, PapGDSF N96S N286S (Escherichia coli, UniProt A0A0H2VAQ6, N116S/N306S).
T5 construct: mouse IgGK signal peptide, C-terminal 8xHis, ExpiCHO, purified
T5 sequence (A0A0H2VAQ6 with tags, fused parts or gaps N116S/N306S): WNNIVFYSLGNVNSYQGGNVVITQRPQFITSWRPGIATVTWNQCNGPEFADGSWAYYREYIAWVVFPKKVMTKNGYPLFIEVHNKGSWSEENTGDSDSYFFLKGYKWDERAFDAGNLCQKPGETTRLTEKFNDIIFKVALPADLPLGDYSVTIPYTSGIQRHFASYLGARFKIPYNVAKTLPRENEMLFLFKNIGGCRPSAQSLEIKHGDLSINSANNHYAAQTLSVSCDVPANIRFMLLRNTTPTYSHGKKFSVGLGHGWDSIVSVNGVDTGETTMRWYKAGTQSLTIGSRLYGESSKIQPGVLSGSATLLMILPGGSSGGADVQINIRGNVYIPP
The note with it: HEPES pH 7.4, 4° C. overnight. On the procedure:
as §1, §2, §3

[6] abbreviates: GbO4 beads, read-out: Kd (GbO4).
[7] abbreviates: GbO2Mpo beads, read-out: Kd (GbO2).

One may read the Kd as the free concentration of one partner at which half of the binding sites on the other are occupied at equilibrium, for simple one-to-one binding.

Changes are numbered by the printed parent chain. Like-named read-outs stand apart in the source and are kept apart here.

With GalNAc-Gal-Gal-Glc-ceramide [GbO4], the Kd in experiment [1] (setting [6]) is 29 nM; in experiment [2] (setting [6]), greater than 300 nM; in experiment [3] (setting [6]), greater than 10 nM; in experiment [4] (setting [6]), less than 50 nM; in experiment [5] (setting [6]), 8.8 nM. Moreover, the “binding to GbO4 (in words)” value in experiment [2] is “reduced binding”.
Consider Gal-Glc-phenoxy-octyl-amine [GbO2], for which the Kd in experiment [1] (setting [7]) came out at 1.1 nM; in experiment [2] (setting [7]) it was 1.4 nM; in experiment [3] (setting [7]) it was 1.8 nM; in experiment [4] (setting [7]) it was 1 nM; in experiment [5] (setting [7]), 1.6 nM.

Source of the values: patent US20260061042A1, “POLYNUCLEOTIDE COMPOSITIONS AND USES THEREOF” (Pfizer Inc., priority 2024, published 2026).
